Results: patent publication US20050288187A1, “Inhibitor development for 4-hydroxyphenylpyruvate dioxygenase, employing tyrosinemia 1 as a model for human diseases mediated by 2-oxoacid utilizing dioxygenases” (priority 2002, published 2005)

Experiments:
prolyl 4-hydroxylase = conditions: U.S. Pat. Nos. 5,789,426; 5,965,585; 5,965,586; cited from earlier work
P4-H [1] = experiment: Collagen-derived serum biomarkers (PIIINP, NC1, NTD) for P4-H activity in a tyrosinemia I patient during NTBC treatment; assay type: in vivo, human
Description: A total of ten biomarkers were monitored from just before initiation of NTBC medication to up to 103 days of treatment, generating a total of 60 data points. […] P4-H activity was assessed via specific antigens released from three different groups of collagens, all of which are substrates for this enzyme. These biomarkers, quantified by specific radioimmunoassay, consisted of PIIINP, an indicator for the fibril-forming collagen type III; NC1, a marker for the sheet-forming collagen type IV; and NTD, an indicator for the beaded filament-forming collagen type VI. The P1 antigen, derived from the non-collagenous protein laminin and thus not dependent on P4-H activity, served as control.

P4-H [2] = conditions: one other tyrosinemic child (Pitkanen et al. 1999); cited from earlier work
laminin P1 antigen = experiment: Control biomarker P1 antigen of laminin (P4-H independent) during NTBC treatment; assay type: in vivo, human; conditions: P4-H independent protein
Source text: Inherit Metab. […] Res. 39:[…]

Compound	inhibition of prolyl 4-hydroxylase (prolyl 4-hydroxylase)	NCI (collagen type IV biomarker) rise over initial value (P4-H [1]; after 103 days on NTBC) [factor]	NTC (collagen type VI biomarker) rise over initial value (P4-H [1]; after 103 days on NTBC) [factor]	biomarkers for P4-H activity (PIIINP, NC1, NTD), response to NTBC (P4-H [1]; three months study period)	initially elevated PIIINP level, response to treatment with NTBC (P4-H [2])	laminin P1 antigen, response to NTBC treatment (laminin P1 antigen)
Cc1c(O)c(=O)ccn1C [DMHP, 1,2-dimethyl-3-hydroxypyrid-4-one]	known inhibitors of prolyl 4-hydroxylase	–	–	–	–	–
O=C1CCCC(=O)C1C(=O)c1ccc(C(F)(F)F)cc1[N+](=O)[O-] [NTBC, 2-(2-nitro-4-trifluoromethylbenzoyl)-cyclohexane-1,3-dione]	–	1.1	1.1	entirely unresponsive	non-responsive	unresponsive
